Test results as given in US12390437B2, “Itaconic acid derivatives and uses thereof intreating an inflammatory disease or a disease associated with an undesirable immune response” (Sitryx Therapeutics Limited, priority 2019, dated 2025).
pIC50: −log10 of the molar value.

Tests used:
[1] = tested on: IL-6 cytokine output from THP-1s; assay: THP-1 AlphaLISA IL-6 cytokine assay; type: cell-based, human; conditions: Homo sapiens; PMA-differentiated THP-1 cells, LPS 24 hr then Nigericin 1 hour
Outline: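 Percent inhibition, normalised to plus- and minus-LPS controls, was plotted against concentration to derive IC50. Differentiated THP-1 cells received compound 30 min ahead of LPS (24 h) and a 1 h nigericin pulse; AlphaLISA quantified supernatant cytokine.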

[2] = Mouse pharmacokinetic study, intravenous dosing; type: in vivo; conditions: male, C57BL/6, mouse, iv, plasma, 10 mg/kg i.v., read-out: Parent compound concentration following intravenous administration
Outline: (§1)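 Oral arm: 100 mg/kg gavage in 5% DMSO with 0.5% HPMC/0.1% Tween 80, blood from 5 min to 24 h. Intravenous arm: 10 mg/kg tail-vein injection in 10% DMSO with HP-β-CD, blood from 3 min to 8 h. Male C57BL/6 mice; LC-MS/MS on plasma.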

[3] = Mouse pharmacokinetic study, oral administration; type: in vivo; conditions: male, C57BL/6, mouse, plasma, po, 100 mg/kg, plasma, male C57BL/6 mice, oral gavage 100 mg/kg; for concentration at 0.083 h: read-out: Parent compound concentrations following oral administration, Time 0.083 h; for concentration at 0.25 h: read-out: Parent compound concentrations following oral administration, Time 0.25 h; for concentration at 0.5 h: read-out: Parent compound concentrations following oral administration, Time 0.5 h; for concentration at 1 h: read-out: Parent compound concentrations following oral administration, Time 1 h; for concentration at 2 h: read-out: Parent compound concentrations following oral administration, Time 2 h; for concentration at 4 h: read-out: Parent compound concentrations following oral administration, Time 4 h; for concentration at 6 h: read-out: Parent compound concentrations following oral administration, Time 6 h; for concentration at 8 h: read-out: Parent compound concentrations following oral administration, Time 8 h; for concentration at 24 h: read-out: Parent compound concentrations following oral administration, Time 24 h
Outline: as §1

[4] = Hepatocyte stability assay (human); type: in vitro ADME; conditions: cryopreserved hepatocytes, 10 μM compound, 0.5×10^6 cells/mL, 60 minutes, read-out: T½
Outline: (§2)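 Cryopreserved hepatocytes (viability >70%), 0.5×10^6 cells/mL in Leibovitz buffer, incubated at 37 °C with 10 μM compound (0.1% DMSO), duplicates; buffer-only incubations as negative control. Samples at 0-60 min quenched in acetonitrile, parent measured by LC-MS/MS; half-life and Clint (μL min^−1 10^−6 cells) from ln % remaining versus time slope.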

hepatocytes = assay: Hepatocyte stability assay (human); type: in vitro ADME; conditions: 10 μM compound, 0.5×10^6 cells/mL, 60 minutes
Outline: as §2

pIC50 [1]	concentration at 0.05 h [2] [ng/mL]	concentration at 0.133 h [2] [ng/mL]	concentration at 0.25 h [2] [ng/mL]	concentration at 0.5 h [2] [ng/mL]	concentration at 1 h [2] [ng/mL]	concentration at 2 h [2] [ng/mL]	concentration at 4 h [2] [ng/mL]	concentration at 6 h [2] [ng/mL]	concentration at 8 h [2] [ng/mL]	concentration at 0.083 h [3] [ng/mL]	concentration at 0.25 h [3] [ng/mL]	concentration at 0.5 h [3] [ng/mL]	concentration at 1 h [3] [ng/mL]	concentration at 2 h [3] [ng/mL]	concentration at 4 h [3] [ng/mL]	concentration at 8 h [3] [ng/mL]	concentration at 24 h [3] [ng/mL]	half-life at 10 μM [4] [min]	CIint (μL min^−1 10^−6 cells) (hepatocytes)	Compound	also measured
4.72	17600	8350	2780	752	69	2.2	1.4	1.6	< 0.8	27500	18000	6450	3400	1040	568	86	< 0.8	91	15	C=C(CC(=O)OC1CCCCCCC1)C(=O)OCCC(=O)O [Example 82, 3-((4-(cyclooctyloxy)-2-methylene-4-oxobutanoyl)oxy)propanoic acid]	concentration at 6 h [3]: 112 ng/mL
4.90	27800	12400	7680	2300	430	65	6.8	< 4	< 4	44000	39100	28500	14000	4740	918	16	6.8	49	29	C=C(CC(=O)O[C@@H](C)CCCCCC)C(=O)OCC(=O)O [Example 89, (S)-2-((2-methylene-4-(octan-2-yloxy)-4-oxobutanoyl)oxy)acetic acid]	concentration at 6 h [3]: 582 ng/mL
4.66	5580	–	1030	217	34	6.5	< 2	< 2	–	–	9090	5120	3310	1000	368	217	< 31	16	86	C=C(CC(=O)O[C@@H](C)CCCCCC)C(=O)OCCC(=O)O [Example 84, (S)-3-((2-methylene-4-(octan-2-yloxy)-4-oxobutanoyl)oxy)propanoic acid]	–
4.33	15100	3590	659	169	6.4	3	< 0.8	< 0.8	< 0.8	15300	4770	3780	1550	810	856	443	< 0.8	126	11	C=C(CC(=O)OC1CC2(CCC2)C1)C(=O)OCC(=O)O [Example 96, 2-((2-methylene-4-oxo-4-(spiro[3.3]heptan-2-yloxy)butanoyl)oxy)acetic acid]	concentration at 6 h [3]: 330 ng/mL
5.01	19200	7160	2020	1600	89	3.6	2.8	1.7	1.2	22900	10600	6200	3370	3470	1640	500	1.1	183	8	C=C(CC(=O)OC1CCCCCCC1)C(=O)OCC(=O)O [Example 90, 2-((4-(cyclooctyloxy)-2-methylene-4-oxobutanoyl)oxy)acetic acid]	concentration at 6 h [3]: 1050 ng/mL
5.28	–	–	–	–	–	–	–	–	–	–	850	1150	715	173	67	< 1.5	< 1.5	6	243	C=C(CC(=O)OCCCCCCCC)C(=O)OCCC(=O)O [Example 80, 3-((2-methylene-4-(octyloxy)-4-oxobutanoyl)oxy)propanoic Acid]	–
4.69	42500	23500	12400	6250	2510	200	40	11	4.2	53900	43600	33800	12700	10500	4100	72	5.5	13	134	C=C(CC(=O)O[C@H](C)CCCCCC)C(=O)OCCC(=O)O [Example 88, (R)-3-((2-methylene-4-(octan-2-yloxy)-4-oxobutanoyl)oxy)propanoic acid]	concentration at 6 h [3]: 1950 ng/mL
5.26	–	–	–	–	–	–	–	–	–	–	536	843	344	111	12	4.5	< 1.5	13	109	C=C(CC(=O)OCCCCCCCC)C(=O)OCC(=O)O [Example 49, 2-((2-methylene-4-(octyloxy)-4-oxobutanoyl)oxy)acetic acid]	–
